What was measured:
[1] = system: HCMV; assay: Neutralization of cell-free HCMV particles / inhibition of HCMV entry in cell culture; type: cell-based, Human cytomegalovirus
Description: Infectious cell free HCMV preparations (corresponding to a multiplicity of infection of 1) are pre-incubated with the substance (at variable concentrations) for 2 h at 37° C. The pre-incubated mixture of HCMV and substance is added to cell cultures of choice, including at least a culture of human primary fibroblasts and a culture of human endothelial cells. Cells are incubated with the mixture for 2 h at 37° C. The mixture of HCMV and substance is then replaced with the appropriate cell culture medium and cells are further incubated for at least 16 h at 37° C. HCMV infection of the cells is detected by immunostaining of HCMV immediate early antigens (pUL122/123) with indirect immunofluorescence. The ratio of HCMV-IE antigen-positive cells per total cells is calculated as a readout for the efficiency of viral entry.

[2] = system: TB40-BACKL7-UL32EGFP-UL100mCherry; assay: Adsorption and penetration of dual fluorescent HCMV particles on HFFs; type: cell-based, Human cytomegalovirus; conditions: 100 ng/ml
Description: To distinguish between adsorption and penetration of viral particles the inventors made use of dual fluorescent HCMV TB40-BACKL7-UL32EGFP-UL100mCherry (Sampaio 2013). HFFs and HECs were seeded at a density of 40,000 cells per well on gelatin-coated MIDI plates. Overnight produced cell-free infectious supernatant of the fluorescent virus was pre-incubated with PDGFR-Fcs for 2 h at 37° C. Before addition of the mixture the cells were pre-incubated with MEM for 30 min. […] After fixation with acetone, the EGFP signal of pUL32-EGFP was enhanced using mouse-anti-GFP (clone 3E6, Invitrogen) and Alexa488-anti-mouse (Life Technologies). DAPI (4′,6-diamidino-2-phenylindole) was added to mark the cell nuclei. The number of mCherry and EGFP positive particles which are enveloped was compared to the number of particles which were only green per cell. These […] particles have lost their UL100mCherry containing envelope, presumably by fusion with cellular membranes.
To further investigate, which of the initial steps of infection are blocked, the inventors performed a series of experiments that allowed discriminating between adsorption and penetration. They used the dual fluorescent virus TB40-BACKL7-UL32EGFP-UL100mCherry (Sampaio 2013) as it allows to discriminate between enveloped (EGFP-positive and mCherry positive) and non-enveloped particles (only EGFP positive). […]

[3] = system: HSV-1 strain F; assay: Inhibition of HSV infection (specificity control); type: cell-based; conditions: data not shown
Description: (§1) Infection efficiencies were determined by immunofluorescence staining for viral proteins. For fixation and permeabilization the cells were incubated with 80% acetone for 5 min. For HCMV infected cells the immediate early proteins pUL122/123 were detected with a mouse monoclonal (clone E13, Argene) and visualized using a Cy3 conjugated goat anti-mouse secondary antibody (Jackson Immuno Research). HSV infected cultures were stained 6 h post infection for ICP0 using a mouse monoclonal (clone 11060, Santa Cruz) and goat anti-mouse AF488 (life technologies). DAPI was used to locate nuclei. Infection rates were determined by counting the number of cell nuclei positive for the respective viral protein, as well as the total number of nuclei per image. For each condition three images were evaluated.

[4] = system: HCMV strain TB40/E; assay: Inhibition of infection of fibroblasts (HFFs), IE antigen immunofluorescence; type: cell-based, Human cytomegalovirus
Description: For testing the inhibitory effect of antivirals or fusion proteins on HCMV, the respective inhibitors were diluted in MEM and mixed with infectious supernatants, the mixtures were incubated for 2 h at 37° C. before addition to the cells. For fibroblast infection the virus-inhibitor mixture was incubated on the cells for about 24 h. If endothelial cells were included in the experiment, all cells were supplied with their respective maintenance media after 2 h, and further incubated for 22 h.
as §1
To test this, the inventors pre-incubated cell free preparations of HCMV strain TB40/E with variable concentrations of soluble PDGFR-alpha-Fc chimeras for 2 h before adding them to HFFs and HECs. After 2 h the virus was removed and replaced with the appropriate cell culture medium for an overnight incubation. Cultures were then fixed, and the fraction of infected cells was determined by indirect immunofluorescence staining of viral IE antigens.
Cell free preparations of TB40/E were pre-incubated with increasing concentrations of the various Fc chimeras for 2 h. HFFs were then incubated with the mixtures for 2 h followed by a medium exchange and an overnight incubation.

[5] = system: HCMV wild type or UL74stop particles; assay: Staining of wild type and UL74stop (gO deficient) particles with Fc-fusion protein; type: binding, Human cytomegalovirus; conditions: 500 ng/ml, 2 h
Description: To assess the binding of Fc-Proteins to virus particles, HFFs were seeded at a density of 40,000 cells per well on IBIDI plates 1 day prior to infection. Virus preparations were pre-incubated with Fc-fusion proteins at a final concentration of 500 ng/ml for 2 h at 37° C. The virus/Fc-protein mixtures were incubated with the cells for 1.5 h on ice. Before fixation with 80% acetone, the cells were washed once with MEM. For staining of viral particles mouse hybridoma recognizing the abundant viral protein pp150 (generously provided by W. Britt, Sanchez 2000) used. As a secondary antibody goat anti-mouse Cy3 (Jackson Immuno Research was used. Visualization of bound Fc-proteins was achieved by applying anti-human Alexa488 (Invitrogen). For better orientation, cell nuclei were stained with DAPI. For quantification of PDGFR-alpha-Fc binding to HCMV particles, the grey values of 100 particles per condition were quantified using AxioVision Software (Zeiss).
To test whether pUL74 is an interaction partner of PDGFR-alpha-Fc, the inventors tested whether gO deficient particles can be stained with the soluble molecule similarly to wild type particles (shown in FIG. 8). HCMV wild type or UL74stop particles were incubated with 500 ng/ml PDGFR-alpha-Fc or PDGFRβ-Fc for 2 h before attachment to the cells ice. […]

In the case of “PDGFR-alpha-Fc: recombinant Fc-fusion protein of the PDGFR-alpha extracellular domain, obtained from R&D (6765-PR-050)”, the “EC50 of binding to and neutralizing cell-free HCMV particles” value [1] is reported as 0.01 to 0.05 µg/mL, the “attachment to and fusion with cells of treated particles” value [1] is reported as “reduced attachment to and reduced fusion with cells” and the “effect when applied post-attachment” value [1] is reported as “effective”. For the same substance, the “reduction of adsorption on HFFs” value [2] was 50%, the “reduction of penetration of HFFs (less efficient)” value [2] was 75% and the “effect on HSV infection” value [3] was “not affected”. For the same substance, the “inhibition of infection of HFFs at 200 ng/ml” value ([4]; 200 ng/ml) was “complete abrogation of infection”, the “inhibitory potential of Fc chimeras on HCMV infection of HFFs” value ([4]; increasing concentrations, pre-incubated 2 h) was “blocked infection in a dose dependent fashion” and the “EC50 of inhibition of infection of HFFs” value ([4]; virus pre-incubated 2 h) was 0.01 to 0.02 µg/mL. For the same substance, the “staining of wild type vs UL74stop particles with anti-human Fc antibody” value [5] was “Only virus particles containing the glycoprotein pUL74 were stained”.

From US11390661B2, “HCMV entry inhibitors” (priority 2016, dated 2022)
